From patent US20260240826A1, “COMPOSITIONS FOR PD-L1 INHIBITION AND METHODS OF USE THEREOF” (ARIZONA BOARD OF REGENTS ON BEHALF OF THE UNIVERSITY OF …, priority 2023, published 2026)

How the values were obtained:
cleaved caspase-3 = cleaved caspase-3 immunohistochemistry of SKH-1 mouse skin; assay type: in vivo; conditions: BMS-202+SSL, 24 hr; vehicle+SSL over 60%
Description: (§1) UVB exposure was performed on AP-1 luciferase reporter mice on the SKH-1 genetic background at a dose of 2.75 kJ/m2 using FS40 bulbs (Q-Lab Corporation) as described before with the modification that mice were imaged 24 hr post UVB exposure using whole body bioluminescence instead of 48 hr post UVB using ear punches. SSL irradiation of SKH-1 mice (Charles River Laboratories, strain code 477) at a dose of 90 kJ/m2 UVA/6 kJ/m2 UVB was performed using UVA-340 bulbs (Q-Lab Corporation) as described before.
Caspase-3: Briefly, deparaffinized mouse skin slides were subjected to antigen retrieval using a Decloaking chamber in Rodent Decloaker HIER solution (both from Biocare, 115° C. 30 seconds, then 90° C. 10 seconds) followed by blocking with first 3% hydrogen peroxide (10 minutes) and then 5% normal goat serum in PBST (1 hour). Slides were then incubated in a 1:300 dilution of anti-cleaved caspase-3 antibody (#9661, Cell Signal Technology) at 4° C. overnight. […] For quantification, the average count (caspase 3-positive per total epidermal cells) in four fields/slide (20× field) was determined for each mouse skin specimen and calculated per group (n=3).
Mouse IHC data were analyzed using Kruskal-Wallis non-parametric data analysis (GraphPad Prism 10.0 software). […]

PD-L1 [1] = experiment: SSL-induced PD-L1 protein in primary epidermal keratinocytes (HEK), immunoblot; assay type: cell-based; conditions: human primary keratinocytes (HEK cells)
Description: For SSL treatment, UVA-340 bulbs (Q-Lab Corporation) were used. Before exposure, cells were washed with 1×PBS and then incubated in 4 mL PBS (with 0.01% MgCl2 and 0.01% CaCl2) during irradiation. Cells were exposed to 40 kJ/m2 UVA/2.68 kJ/m2 UVB, then rinsed once more with PBS prior to being placed back into DMEM with 1% FBS+penicillin/streptomycin and vehicle or BMS-202 (post-treatment) and incubated until harvest 24 hr later. Control cells underwent identical processing, except were held in the biosafety cabinet without UV exposure.
Adult human epithelial keratinocytes (HEKs) were purchased from Thermo Scientific and maintained in EpiLife media on collagen-coated plates as per the vendor's instructions. Cells were treated with BMS-202 and SSL as described for HaCaT cells.
(§2) Cells were lysed in RIPA containing 1×HALT protease+phosphatase inhibitor cocktail (ThermoFisher Scientific) and 100 mM PMSF and protein concentrations were assessed using BCA assay (Bio-Rad). Mouse epidermal protein lysates for immunoblot analysis were derived from scraped frozen SKH-1 skins as described previously (Blohm-Mangone et al., 2018). Twenty μg of protein/lane were loaded onto 10% gels for electrophoresis/immunoblotting using established protocols. […]

PD-L1 [2] = experiment: SSL-induced PD-L1 protein in SKH-1 mouse epidermis, immunoblot; assay type: in vivo; conditions: topical 8 mM; 24 hr post SSL
Description: as §1
as §2, with “protocols. Human cell lysate blots were probed with Cell Signaling PD-L1 antibody #13684, and mouse epidermal lysate blots were probed with Invitrogen PD-L1 antibody #PA5-20343. Beta-actin (Cell Signaling #4970) was used as a loading control. An anti-rabbit secondary antibody (Cell Signaling #7074) was used for all blots using standard chemiluminescent protocols (Thermo Scientific Pico ECL #34577).” for “protocols.”

PD-L1 [3] = experiment: PD-L1 immunohistochemistry of SKH-1 mouse skin; assay type: in vivo; conditions: topical 8 mM pre/post; 24 hr post SSL
Description: as §1
PD-L1: IHC staining for PD-L1 in mouse skins was performed using the NBP1-43262 antibody (Novus). Epidermal PD-L1 expression is shown as percent staining determined by ImageJ (NIH, open source) quantification using color deconvolution of the brown stain with a uniform threshold between all samples. Each skin sample (n=3, 20× field) was used to measure at least 3 fields per specimen with the exclusion of hair follicles, if present.
Mouse IHC data were analyzed using Kruskal-Wallis non-parametric data analysis (GraphPad Prism 10.0 software). IHC images shown are magnified according to the 100 μm scale bar contained in the respective panel as specified throughout the figure legends.

PD-L1 [4] = experiment: PD-L1 mRNA in SKH-1 mouse skin by RT-qPCR; assay type: in vivo; conditions: topical 8 mM; 24 hr after SSL
Description: as §1
Total RNA was isolated from SSL-treated mouse skin using the Qiagen RNeasy Mini Kit (Qiagen) according to the manufacturer's protocol. RNA integrity was checked by the RNA 6000 Nano chip kit using Agilent 2100 Bioanalyzer (Agilent Technologies). […] Then, 10 ng of cDNA was used for amplification of target genes by quantitative PCR using the following conditions: 95° C. for 10 min followed by 95° C. for 15 sec and 60° C. for 1 min for a total of 40 cycles performed in the ABI7500 Real-Time PCR System (Applied Biosystems). […] After amplification plots were generated, the Ct values (cycle number at which fluorescence reaches threshold) were recorded and quantified using the comparative (ΔΔCt) Ct method as described in the ABI Prism 7500 sequence detection system user guide. Statistical significance was calculated employing the Student's two-tailed t-test.

[5] = cited from earlier work

COc1nc(OCc2cccc(-c3ccccc3)c2C)ccc1CNCCNC(C)=O [BMS-202]
percentage of epidermal cells staining positive for cleaved caspase-3 (cleaved caspase-3): approximately 10% | SSL-induced PD-L1 protein upregulation (immunoblot) (PD-L1 [1]): reproducible | UV-induced PD-L1 upregulation at the protein level (immunoblot) (PD-L1 [2]): significantly antagonized | antagonistic effect on PD-L1 protein, pre- and post-UV application versus pre only (PD-L1 [2]): more pronounced | epidermal PD-L1 staining (IHC) (PD-L1 [3]): pronounced inhibition | PD-L1 mRNA expression in full thickness mouse skin (RT-qPCR) (PD-L1 [4]): inhibition | systemic availability upon topical application [5]: minimal systemic availability
